Our source for the LogP values is patent US20180339976A1, “NOVEL TRIAZOLE DERIVATIVES” (priority 2015, published 2018).

Each structure is given as a SMILES string.

The nature of the first series: Log P by HPLC on reversed phase columns (EEC directive 79/831 Annex V.A8). In kind it is physicochemical.
Conditions: not given
As for the experimental part: Measurement of Log P values was performed according to EEC directive 79/831 Annex V.A8 by HPLC (High Performance Liquid Chromatography) on reversed phase columns with the following methods: • ^[a]
If more than one Log P value is available within the same method, all the values are given and separated by “+”.
Lambda-max-values were determined using UV-spectra from 200 nm to 400 nm and the peak values of the chromatographic signals.
On to `OC(Cc1cc(F)ncc1Cl)(Cn1cncn1)c1ccc(F)cc1` (centres unmarked) [Example I-15], for which the LogP was 2.12^[a].

Turning to `OC(Cc1cc(F)ncc1Cl)(Cn1cncn1)c1ccc(Oc2ccccc2)cc1` (centres unmarked) [Example I-34], the LogP was 3.02^[a].

For the molecule `CC(C)(C)c1noc(-c2ccc(C(O)(Cc3ccncc3Cl)Cn3cncn3)cc2)n1` (centres unmarked) [Example I-38], the LogP is 2.65^[a].

For the molecule `OC(Cc1ccnc(Cl)c1F)(Cn1cncn1)c1ccc(Oc2ccccc2)cc1` (centres unmarked) [Example I-46], the LogP was 2.84^[a].

On to `OC(Cc1ccnc(Cl)c1)(Cn1cncn1)c1ccc(Cl)cc1` (centres unmarked) [Example I-47], for which the LogP is 1.96^[a].

`OC(Cc1ccnc(Cl)c1F)(Cn1cncn1)c1ccccc1Cl` (centres unmarked) [Example I-07]: the LogP is 2.27^[a].

`OC(Cc1ccncc1F)(Cn1cncn1)c1ccc(F)cc1` (centres unmarked) [Example I-13]: the LogP is 1.26^[a].

For `OC(Cc1cc(F)ncc1Cl)(Cn1cncn1)c1ccc(F)cc1F` (centres unmarked) [Example I-41], the LogP was 2.35^[a].

Take `OC(Cc1cc(Cl)ncc1F)(Cn1cncn1)c1ccc(F)cc1F` (centres unmarked) [Example I-45]: the LogP was 2.13^[a].

`OC(Cc1ccncc1Cl)(Cn1cncn1)c1ccc(Oc2ccc(Cl)cc2)cc1` (centres unmarked) [Example I-06]: the LogP is 2.90^[a].

As to `OC(Cc1cc(F)ncc1Cl)(Cn1cncn1)c1ccc(Cl)cc1` (centres unmarked) [Example I-28], the LogP was 2.43^[a].

`OC(Cc1ccncc1F)(Cn1cncn1)c1ccc(Oc2ccccc2)cc1` (centres unmarked) [Example I-03]: the LogP was 2.13^[a].

For `OC(Cc1ccncc1F)(Cn1cncn1)c1ccc(Cl)cc1` (centres unmarked) [Example I-31], the LogP is 1.54^[a].

Regarding `OC(Cc1ccnc(Cl)c1)(Cn1cncn1)c1ccc(F)cc1F` (centres unmarked) [Example I-44], the LogP was 1.86^[a].

In the case of `OC(Cc1ccncc1F)(Cn1cncn1)c1ccc(F)cc1F` (centres unmarked) [Example I-43], the LogP was 1.47^[a].

For the molecule `OC(Cc1ccnc(Cl)c1F)(Cn1cncn1)c1ccc(F)cc1F` (single isomer, unassigned) [Example I-55], the LogP is 2.21^[a].

In the case of `OC(Cc1cc(F)ncc1Cl)(Cn1cncn1)c1ccccc1` (centres unmarked) [Example I-14], the LogP is 2.02^[a].

For the molecule `OC(Cc1ccnc(Cl)c1F)(Cn1cncn1)c1ccccc1` (centres unmarked) [Example I-49], the LogP is 1.84^[a].

Take `OC(Cc1cc(Cl)ncc1F)(Cn1cncn1)c1ccccc1` (centres unmarked) [Example I-48]: the LogP was 1.86^[a].

Consider `OC(Cc1cccnc1Cl)(Cn1cncn1)c1ccc(C(F)(F)F)cc1` (centres unmarked) [Example I-16], for which the LogP was 2.22^[a].

Consider `OC(Cc1ccncc1F)(Cn1cncn1)c1ccc(Oc2ccc(F)cc2F)cc1` (centres unmarked) [Example I-20], for which the LogP was 2.27^[a].

Still in this series, the particulars now being: Table 1, formula (I); method [a]: LC-UV, acidic range, 0.1% formic acid in water and acetonitrile.
Turning to `OC(Cc1ccncc1F)(Cn1cncn1)c1ccc(-c2ccccc2)cc1` (centres unmarked) [Example I-04], the LogP is 2.13^[a].

As to `OC(Cc1cc(Cl)ncc1F)(Cn1cncn1)c1ccc(-c2ccccc2)cc1` (centres unmarked) [Example I-26], the LogP was 2.88^[a].

For `OC(Cc1cc(F)ncc1Cl)(Cn1cncn1)c1ccc(-c2ccccc2)cc1` (centres unmarked) [Example I-27], the LogP was 3.02^[a].

Staying with this series, now noted: Table 2, epoxides of formula (XII); method [a]: LC-UV, acidic range, 0.1% formic acid in water and acetonitrile.
On to `Fc1cc(CC2(c3ccccc3Cl)CO2)c(Cl)cn1` (racemic) [XII-38], for which the LogP was 3.80^[a].

Consider `Fc1ccc(C2(Cc3ccnc(Cl)c3)CO2)cc1` (centres unmarked) [XII-14], for which the LogP is 2.76^[a].

For `Fc1ccc(Oc2ccc(C3(Cc4cc(F)ncc4Cl)CO3)cc2)c(F)c1` (racemic) [XII-41], the LogP is 4.51^[a].

For the molecule `Fc1cc(CC2(c3ccc(Oc4ccccc4)cc3)CO2)c(Cl)cn1` (racemic) [XII-40], the LogP was 4.57^[a].

Turning to `Clc1cncc(Cl)c1CC1(c2ccc(-c3ccccc3)cc2)CO1` (racemic) [XII-53], the LogP is 4.89^[a].

For the molecule `Clc1cnccc1CC1(c2ccc(Oc3ccccc3)cc2)CO1` (centres unmarked) [XII-32], the LogP is 3.80^[a].

`Fc1c(CC2(c3ccccc3Cl)CO2)ccnc1Cl` (racemic) [XII-49]: the LogP is 3.47^[a].

Consider `Clc1cnccc1CC1(c2ccc(-c3ccccc3)cc2)CO1` (centres unmarked) [XII-28], for which the LogP is 3.85^[a].

In the case of `Fc1ccc(C2(Cc3ccncc3Cl)CO2)c(F)c1` (centres unmarked) [XII-34], the LogP is 2.76^[a].

As for `Cc1cc(C)c(C2(Cc3ccncc3Cl)CO2)c(C)c1` (racemic) [XII-60], the LogP was 4.15^[a].

As for `Clc1cc(CC2(c3ccc(-c4ccccc4)cc3)CO2)ccn1` (centres unmarked) [XII-13], the LogP is 3.89^[a].

Regarding `Fc1ccc(C2(Cc3ccncc3Cl)CO2)cc1` (centres unmarked) [XII-27], the LogP is 2.65^[a].

Regarding `Clc1ccccc1COc1cccc(C2(Cc3ccncc3Cl)CO2)c1` (racemic) [XII-63], the LogP is 4.30^[a].

On to `CC(C)(C)c1noc(-c2ccc(C3(Cc4ccncc4Cl)CO3)cc2)n1` (centres unmarked) [XII-65], for which the LogP is 4.25^[a].

For `Clc1cnccc1CC1(c2ccccc2Cl)CO1` (centres unmarked) [XII-29], the LogP was 3.02^[a].

Take `Clc1ccc(C2(Cc3ccncc3Cl)CO2)cc1` (centres unmarked) [XII-30]: the LogP was 3.15^[a].

As for `Fc1cnccc1CC1(c2ccc(Oc3ccccc3)cc2)CO1` (centres unmarked) [XII-7], the LogP was 3.37^[a].

Regarding `FC(F)(F)c1ccc(C2(Cc3cccnc3Cl)CO2)cc1` (centres unmarked) [XII-25], the LogP was 3.46^[a].

On to `Clc1cc(CC2(c3ccc(Oc4ccccc4)cc3)CO2)ccn1` (centres unmarked) [XII-9], for which the LogP was 3.37^[a].

With `Fc1cc(CC2(c3ccc(Cl)cc3Cl)CO2)c(Cl)cn1` (racemic) [XII-36], the LogP was 4.45^[a].

Consider `Fc1cc(CC2(c3ccc(-c4ccccc4)cc3)CO2)c(Cl)cn1` (racemic) [XII-42], for which the LogP was 4.64^[a].

Consider `Clc1ccc(C2(Cc3c(Cl)cncc3Cl)CO2)c(Cl)c1` (racemic) [XII-54], for which the LogP is 4.76^[a].

Turning to `Clc1ccccc1COc1ccc(C2(Cc3ccncc3Cl)CO2)cc1` (racemic) [XII-64], the LogP is 4.30^[a].

For `Fc1cc(CC2(c3ccc(Cl)cc3)CO2)c(Cl)cn1` (racemic) [XII-37], the LogP was 3.85^[a].

`Fc1ccc(Oc2ccc(C3(Cc4ccncc4Cl)CO3)cc2)c(F)c1` (centres unmarked) [XII-33]: the LogP was 3.80^[a].

In the case of `Fc1c(CC2(c3ccc(-c4ccccc4)cc3)CO2)ccnc1Cl` (racemic) [XII-45], the LogP is 4.25^[a].

`Fc1cnccc1CC1(c2ccc(-c3ccccc3)cc2)CO1` (centres unmarked) [XII-8]: the LogP is 3.37^[a].

On to `Fc1ccc(C2(Cc3c(Cl)cncc3Cl)CO2)cc1` (racemic) [XII-56], for which the LogP was 3.58^[a].

In the case of `Clc1ccccc1C1(Cc2c(Cl)cncc2Cl)CO1` (racemic) [XII-59], the LogP is 4.04^[a].

As to `Fc1cnc(Cl)cc1CC1(c2ccc(Cl)cc2)CO1` (centres unmarked) [XII-17], the LogP was 3.56^[a].

Consider `Clc1ccc(C2(Cc3cccnc3Cl)CO2)cc1` (centres unmarked) [XII-24], for which the LogP is 3.25^[a].

Turning to `Clc1cnccc1CC1(c2c(Cl)cccc2Cl)CO1` (racemic) [XII-62], the LogP was 3.02^[a].

On to `Fc1ccc(C2(Cc3cc(F)ncc3Cl)CO2)c(F)c1` (racemic) [XII-35], for which the LogP is 3.46^[a].

Consider `Clc1cncc(Cl)c1CC1(c2ccccc2)CO1` (racemic) [XII-58], for which the LogP was 3.53^[a].

For `Clc1cccc(C2(Cc3cccnc3Cl)CO2)c1` (centres unmarked) [XII-23], the LogP is 3.24^[a].

In the case of `Clc1cnccc1CC1(c2cccc(Cl)c2Cl)CO1` (racemic) [XII-61], the LogP is 3.53^[a].

As to `Fc1ccc(Oc2ccc(C3(Cc4cc(Cl)ncc4F)CO3)cc2)c(F)c1` (centres unmarked) [XII-21], the LogP was 4.17^[a].

`Fc1ccc(Oc2ccc(C3(Cc4ccnc(Cl)c4)CO3)cc2)c(F)c1` (centres unmarked) [XII-12]: the LogP is 3.85^[a].
